Measurements as given in patent US8618289B2 (Ambit Biosciences Corporation, priority 2008, dated 2013).

What was measured:
A375 cells = assay: cells; conditions: Homo sapiens, A-375, read-out: A375 Viability EC50
[1] = tested on: MEK1 phosphorylation in the A375 human melanoma cell line; assay: cells; conditions: A-375, read-out: pMEK IC50
RAF kinases [2] = molecular target: RAF kinases (Homo sapiens, UniProt P04049); assay: biochemical
RAF kinases [3] = molecular target: RAF kinases (Homo sapiens, UniProt P15056); assay: biochemical
RAF kinases [4] = molecular target: RAF kinases (Homo sapiens, UniProt P15056, V600E); assay: biochemical
Chain of RAF kinases (Homo sapiens, UniProt P15056, V600E) (P15056 whole entry V600E): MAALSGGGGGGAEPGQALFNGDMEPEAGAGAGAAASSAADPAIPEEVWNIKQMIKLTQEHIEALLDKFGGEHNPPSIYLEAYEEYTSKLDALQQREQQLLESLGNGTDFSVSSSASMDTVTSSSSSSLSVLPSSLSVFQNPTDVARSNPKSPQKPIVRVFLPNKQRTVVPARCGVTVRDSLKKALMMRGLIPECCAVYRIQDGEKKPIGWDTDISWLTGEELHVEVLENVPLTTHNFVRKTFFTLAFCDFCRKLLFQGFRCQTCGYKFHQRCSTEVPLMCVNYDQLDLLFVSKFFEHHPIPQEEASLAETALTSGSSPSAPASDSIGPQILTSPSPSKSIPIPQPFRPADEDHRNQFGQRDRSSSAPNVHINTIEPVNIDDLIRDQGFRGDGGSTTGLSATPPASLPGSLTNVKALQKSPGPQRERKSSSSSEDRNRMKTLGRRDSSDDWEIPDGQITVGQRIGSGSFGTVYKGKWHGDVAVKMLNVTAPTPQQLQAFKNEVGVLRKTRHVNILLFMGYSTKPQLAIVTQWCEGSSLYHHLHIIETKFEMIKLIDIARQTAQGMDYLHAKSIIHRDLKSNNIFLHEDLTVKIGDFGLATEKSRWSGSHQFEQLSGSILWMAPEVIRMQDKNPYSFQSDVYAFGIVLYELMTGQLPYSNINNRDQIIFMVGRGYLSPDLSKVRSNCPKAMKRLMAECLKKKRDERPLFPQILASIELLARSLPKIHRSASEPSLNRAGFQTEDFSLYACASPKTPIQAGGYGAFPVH

Chain of RAF kinases (Homo sapiens, UniProt P15056) (P15056 whole entry): as the sequence (P15056 whole entry V600E) above, with E600V counted along it
Chain of RAF kinases (Homo sapiens, UniProt P04049) (P04049 whole entry): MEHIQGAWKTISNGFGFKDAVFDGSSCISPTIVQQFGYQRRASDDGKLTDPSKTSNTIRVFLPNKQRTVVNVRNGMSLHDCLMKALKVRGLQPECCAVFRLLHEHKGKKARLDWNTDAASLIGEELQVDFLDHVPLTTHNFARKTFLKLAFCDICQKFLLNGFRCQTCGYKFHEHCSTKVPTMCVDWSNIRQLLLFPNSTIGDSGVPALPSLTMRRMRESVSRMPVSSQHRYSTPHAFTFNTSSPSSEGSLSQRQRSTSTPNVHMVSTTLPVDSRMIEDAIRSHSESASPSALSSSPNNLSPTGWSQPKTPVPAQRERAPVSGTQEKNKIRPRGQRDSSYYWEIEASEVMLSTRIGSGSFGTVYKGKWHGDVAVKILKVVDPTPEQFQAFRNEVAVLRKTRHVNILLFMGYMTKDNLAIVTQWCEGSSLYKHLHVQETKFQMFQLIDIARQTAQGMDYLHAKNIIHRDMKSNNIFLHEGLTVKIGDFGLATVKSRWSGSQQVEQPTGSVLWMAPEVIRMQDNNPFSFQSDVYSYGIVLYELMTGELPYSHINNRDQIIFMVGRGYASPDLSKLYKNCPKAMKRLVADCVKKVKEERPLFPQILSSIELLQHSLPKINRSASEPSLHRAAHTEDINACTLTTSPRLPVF

Row | Compound | EC50 (A375 cells) [nM] | IC50 [1] [nM] | Kd (RAF kinases [2]) [nM] | Kd (RAF kinases [3]) [nM] | Kd (RAF kinases [4]) [nM]
1 | COc1cc2ncnc(Sc3cccc(NC(=O)Nc4cc(C(C)(C)C(F)(F)F)on4)c3)c2cc1OC [Ex 261, 1-(3-(6,7-dimethoxyquinazolin-4-ylthio)phenyl)-3-(5-(1,1,1-trifluoro-2-methylpropan-2-yl)isoxazol-3-yl)urea] | > 1000 | < 250 | < 250 | 250 to 500 | < 250
2 | COCCOc1cc(NC(=O)Nc2cccc(Oc3ncnc4cc(OCCOC)c(OC)cc34)c2)cc(C(F)(F)F)c1 [Ex 117, 1-(3-(6-methoxy-7-(2-methoxyethoxy)quinazolin-4-yloxy)phenyl)-3-(3-(2-methoxyethoxy)-5-(trifluoromethyl)phenyl)urea] | > 1000 | > 1000 | 250 to 500 | 500 to 1000 | 250 to 500
3 | COCCOc1cc2ncnc(Sc3cccc(NC(=O)Nc4cc(C(F)(F)F)nn4-c4ccc(F)cc4)c3)c2cc1OC [Ex 242, 1-[1-(4-fluorophenyl)-3-(trifluoromethyl)-1H-pyrazol-5-yl]-3-{3-[6-methoxy-7-(2-methoxyethoxy)quinazolin-4-ylthio]phenyl}urea] | > 1000 | 500 to 1000 | > 1000 | > 1000 | > 1000
4 | COCCOc1cc2ncnc(Oc3cccc(NC(=O)Nc4cc(C(C)(C)C)nn4-c4ccccc4)c3)c2cc1OC [Ex 210, 1-(3-tert-butyl-1-phenyl-1H-pyrazol-5-yl)-3-(3-(6-methoxy-7-(2-methoxyethoxy)quinazolin-4-yloxy)phenyl)urea] |  | < 250 | > 1000 | > 1000 | > 1000
5 | COc1cc2ncnc(Sc3cccc(NC(=O)Nc4ccc(C(F)(F)F)cc4)c3)c2cc1OC [Ex 184, 1-(3-(6,7-dimethoxyquinazolin-4-ylthio)phenyl)-3-(4-(trifluoromethyl)phenyl)urea] | 500 to 1000 | 250 to 500 | 250 to 500 | 500 to 1000 | 250 to 500
6 | COc1cc2ncnc(Oc3cccc(NC(=O)Nc4cc(C(C)(C)F)no4)c3)c2cc1OC [Ex 126, 1-(3-(6,7-dimethoxyquinazolin-4-yloxy)phenyl)-3-(3-(2-fluoropropan-2-yl)isoxazol-5-yl)urea] | 500 to 1000 | < 250 | < 250 | 250 to 500 | < 250
7 | COCCOc1cc2ncnc(Oc3cccc(NC(=O)Nc4cc(C(C)(C)C)nn4C)c3)c2cc1OC [Ex 209, 1-(3-tert-butyl-1-methyl-1H-pyrazol-5-yl)-3-(3-(6-methoxy-7-(2-methoxyethoxy)quinazolin-4-yloxy)phenyl)urea] | > 1000 | 500 to 1000 | > 1000 | > 1000 | 250 to 500
8 | COCCOc1cc2ncnc(Oc3cccc(NC(=O)Nc4cc(C(C)(F)F)no4)c3)c2cc1OC [Ex 211, 1-(3-(1,1-difluoroethyl)isoxazol-5-yl)-3-(3-(6-methoxy-7-(2-methoxyethoxy)quinazolin-4-yloxy)phenyl)urea] | > 1000 | > 1000 | 250 to 500 | 500 to 1000 | 250 to 500
9 | COCCOc1cc2ncnc(Oc3cccc(NC(=O)Nc4cc(-c5ccccc5)on4)c3)c2cc1OC [Ex 203, 1-(3-(6-methoxy-7-(2-methoxyethoxy)quinazolin-4-yloxy)phenyl)-3-(5-phenylisoxazol-3-yl)urea] | > 1000 | > 1000 | > 1000 | > 1000 | > 1000
10 | COc1cc2ncnc(Oc3cccc(NC(=O)Nc4cc(Cl)cc(C(F)(F)F)c4)c3)c2cc1OC [Ex 140, 1-(3-chloro-5-(trifluoromethyl)phenyl)-3-(3-(6,7-dimethoxyquinazolin-4-yloxy)phenyl)urea] | > 1000 | > 1000 | 500 to 1000 |  | 500 to 1000
11 | COc1cc2ncnc(Oc3cccc(NC(=O)Nc4cc(C5(C(F)(F)F)CC5)nn4-c4ccccc4)c3)c2cc1OC [Ex 137, 1-(3-(6,7-dimethoxyquinazolin-4-yloxy)phenyl)-3-(1-phenyl-3-(1-(trifluoromethyl)cyclopropyl)-1H-pyrazol-5-yl)urea] | 500 to 1000 | < 250 | > 1000 | > 1000 | 500 to 1000
12 | COCCOc1cc2ncnc(Sc3cccc(NC(=O)Nc4cccc(C(C)(C)C#N)c4)c3)c2cc1OC [Ex 281, 1-(3-(2-cyanopropan-2-yl)phenyl)-3-(3-(6-methoxy-7-(2-methoxyethoxy)quinazolin-4-ylthio)phenyl)urea] | > 1000 | 250 to 500 | < 250 | < 250 | < 250
13 | COc1cc(NC(=O)Nc2cccc(Sc3ncnc4cc(OC)c(OC)cc34)c2)cc(C(F)(F)F)c1 [Ex 115, 1-(3-(6,7-dimethoxyquinazolin-4-ylthio)phenyl)-3-(3-methoxy-5-(trifluoromethyl)phenyl)urea] | > 1000 | > 1000 | 250 to 500 | 500 to 1000 | 250 to 500
14 | COc1cc2c(Sc3cccc(NC(=O)Nc4ccc(OC)c(C(F)(F)F)c4)c3)ncnc2cc1OCCN1CCOCC1 [Ex 249, 1-(4-methoxy-3-(trifluoromethyl)phenyl)-3-(3-(6-methoxy-7-(2-morpholinoethoxy)quinazolin-4-ylthio)phenyl)urea] | > 1000 | 500 to 1000 | 500 to 1000 | 500 to 1000 | 250 to 500
15 | COCCOc1cc2ncnc(Oc3cccc(NC(=O)Nc4cc(C(F)(F)F)nn4-c4ccccc4)c3)c2cc1OC [Ex 221, 1-{3-[6-methoxy-7-(2-methoxyethoxy)quinazolin-4-yloxy]phenyl}-3-[1-phenyl-3-(trifluoromethyl)-1H-pyrazol-5-yl]urea] | 500 to 1000 | 250 to 500 | > 1000 | > 1000 | 250 to 500
16 | COc1cc2ncnc(Oc3cccc(NC(=O)Nc4cc(C(F)(F)F)ccc4Cl)c3)c2cc1OC [Ex 142, 1-(2-chloro-5-(trifluoromethyl)phenyl)-3-(3-(6,7-dimethoxyquinazolin-4-yloxy)phenyl)urea] | > 1000 | > 1000 | 250 to 500 |  | 250 to 500
17 | COc1cc2ncnc(Oc3cccc(NC(=O)Nc4cc(C(C)(CF)CF)no4)c3)c2cc1OC [Ex 159, 1-[3-(1,3-difluoro-2-methylpropan-2-yl)isoxazol-5-yl]-3-[3-(6,7-dimethoxyquinazolin-4-yloxy]phenyl)urea] | > 1000 | 250 to 500 | 500 to 1000 | 500 to 1000 | 250 to 500
18 | COc1cc2ncnc(Oc3cccc(NC(=O)Nc4cc(C5CCCC5)no4)c3)c2cc1OC [Ex 163, 1-(3-cyclopentylisoxazol-5-yl)-3-(3-(6,7-dimethoxyquinazolin-4-yloxy)phenyl)urea] | > 1000 | > 1000 | 500 to 1000 |  | 250 to 500
19 | COc1cc2ncnc(Oc3cccc(NC(=O)Nc4nccc(C(F)(F)F)n4)c3)c2cc1OC [Ex 143, 1-(3-(6,7-dimethoxyquinazolin-4-yloxy)phenyl)-3-(4-(trifluoromethyl)pyrimidin-2-yl)urea] | > 1000 | > 1000 | 250 to 500 |  | 250 to 500
20 | COc1ccc2ncnc(Sc3cccc(NC(=O)Nc4cc(C(C)(C)C)on4)c3)c2c1 [Ex 49, 1-(5-tert-butylisoxazol-3-yl)-3-(3-(6-methoxyquinazolin-4-ylthio)phenyl)urea] | > 1000 | 500 to 1000 | 500 to 1000 |  | 250 to 500
21 | COCCOc1cc(NC(=O)Nc2cccc(Oc3ncnc4cc(OC)c(OC)cc34)c2)ccc1C(F)(F)F [Ex 147, 1-(3-(6,7-dimethoxyquinazolin-4-yloxy)phenyl)-3-(3-(2-methoxyethoxy)-4-(trifluoromethyl)phenyl)urea] | > 1000 | > 1000 | 500 to 1000 |  | 250 to 500
22 | COc1cc2ncnc(Sc3cccc(NC(=O)Nc4cc(CN5CCOCC5)cc(C(F)(F)F)c4)c3)c2cc1OC [Ex 189, 1-(3-(6,7-dimethoxyquinazolin-4-ylthio)phenyl)-3-(3-(morpholinomethyl)-5-(trifluoromethyl)phenyl)urea] | 500 to 1000 | 500 to 1000 | 500 to 1000 |  | 250 to 500
23 | COCCOc1cc2ncnc(Sc3cccc(NC(=O)Nc4cc(C(C)(C)C)nn4-c4ccc(C)cc4)c3)c2cc1OC [Ex 277, 1-(3-tert-butyl-1-p-tolyl-1H-pyrazol-5-yl)-3-(3-(6-methoxy-7-(2-methoxyethoxy)quinazolin-4-ylthio)phenyl)urea] |  | < 250 | > 1000 | > 1000 | 250 to 500
24 | COCCOc1cc(NC(=O)Nc2cccc(Oc3ncnc4cc(OC)c(OC)cc34)c2)cc(C(F)(F)F)c1 [Ex 129, 1-(3-(6,7-dimethoxyquinazolin-4-yloxy)phenyl)-3-(3-(2-methoxyethoxy)-5-(trifluoromethyl)phenyl)urea] | > 1000 | > 1000 | 250 to 500 |  | 250 to 500
25 | COc1cc2c(Sc3cccc(NC(=O)Nc4cc(C(C)(C)C)on4)c3)ncnc2cc1OCCN1CCC(CO)CC1 [Ex 86, 1-(5-tert-butylisoxazol-3-yl)-3-(3-(7-(2-(4-(hydroxymethyl)piperidin-1-yl)ethoxy)-6-methoxyquinazolin-4-ylthio)phenyl)urea] | > 1000 | < 250 | 500 to 1000 |  | 250 to 500
26 | COc1cc2ncnc(Sc3cccc(NC(=O)Nc4ccc(C(C)(C)C)cc4)c3)c2cc1OC [Ex 174, 1-(4-tert-butylphenyl)-3-(3-(6,7-dimethoxyquinazolin-4-ylthio)phenyl)urea] | > 1000 | > 1000 | 250 to 500 |  | 250 to 500
